From patent US9134300B2, “Method for screening a drug in retinal tissue” (Research Foundation of the City University of New York, priority 2011, dated 2015)

Tested on: microtubules
Assay: Time-lapse second-harmonic generation imaging of retinal nerve fibers following treatment with nocodazole
Parameters: species or system rat
Conditions: retinal nerve fiber layer of retinal flat-mount; perfusion with medium containing nocodazole and 0.4% DMSO; treatment period 90 minutes
Experimental: Rat retinal flat-mounts were prepared from euthanized rats. The eyes were enucleated. A circumferential incision was made around the limbus and the cornea, lens, and vitreous humor were removed. Several radial cuts were made in the eye cup. The retina was isolated from the retinal pigment epithelium and the sclera and transferred to buffered Ames' medium (Sigma-Aldrich), which was bubbled with 95% oxygen and 5% carbon dioxide, and maintained at 34° C. and pH 7.4. The sample was transferred to a perfusion chamber with a transparent bottom (Warner Instruments) within 15 minutes after euthanasia. The retina was placed on the microscope stage with the retinal nerve fiber layer side up. The speed of laminar flow was approximate 1 mL per min.
Imaging: Simultaneous second-harmonic generation microscopy and two-photon excitation fluorescence microscopy were performed to image the fresh retina. The excitation wavelength utilized short pulses from a mode-locked Ti: Sapphire laser source with a duration of 100 fs at 80-MHz repetition rate. The excitation wavelength was 785 nm, except for the experiments where two excitation wavelengths at 785 and 880 nm are compared. […]
Fluorescence was detected in the backward beam path, which included a set of spectral filters (Chroma Technology), and photomultiplier tube (PMT) detectors (Hamamatsu). […]

SMILES: COC(=O)Nc1nc2ccc(C(=O)c3cccs3)cc2[nH]1 [nocodazole]
- intensity of microtubule second-harmonic generation signal: significantly reduced
